The test system of series [1] is C. albicans GDH2346. The series is described as follows: Candida IC50, vegetative cells, by OD600 and fluorescence. It is filed as cell-based. Particulars: for Anti-C. albicans GDH2346 Vegetative (IC50): vegetative cultures; for IC50: Candida albicans, GDH2346, vegetative cells, read-out: CA (Candida IC50). Here is the method: (§1) Candida IC50s were determined by OD600 and fluorescence from vegetative cells and by MTS viability assay in the hyphal state. MICs were determined using a broth microdilution assay under standard CLSI conditions Bacteria strains: E. coli 25922 (EC), S. aureus 27660 (SA), E. faecalis 29212 (EF), P. aeruginosa 10145 (PA), and K. pneumoniae 13883 (KP). Cytotoxicity (EC50) was determined against mouse 3T3 fibroblasts, human transformed liver HepG2 cells, and human oral keratinocyte cell line, OKF6/TERT using an MTS viability assay. Candida IC50s<10 μg/mL, MICs<5 μg/mL and cytotoxicity EC50s>100 μM are indicated in green. MICs>5 μg/mL and cytotoxicity EC50s<100 μM are indicated in red. Candida IC50s (CA) were determined by OD600 and fluorescence from vegetative cells. MICs were determined using a broth microdilution assay under standard CLSI conditions Bacteria strains: E. coli 25922 (EC), S. aureus 27660 (SA), E. faecalis 29212 (EF), P. aeruginosa 10145 (PA), and K. pneumoniae 13883 (KP). Cytotoxicity (EC50) was determined against mouse 3T3 fibroblasts and human transformed liver HepG2 cells using an MTS viability assay. For determination of anti-Candida IC50s, the method was modified by using RPMI/MOPS buffer pH 6.3 and by addition of FDGlu, a substrate for the yeast enzyme exoglucanase which is secreted during cell growth. This provides a fluorescent readout for cell growth which was used in addition to the traditional optical density measure of growth. OD600 and fluorescence were determined at 24 and 48 hours and the average of all 4 reads was used for the final IC50 determination.

Series [2] deals with C. albicans GDH2346. As to the kind of experiment: Candida MIC, CLSI M27-A3. In kind it is cell-based. Particulars: Table 5. The protocol: (§2) Candida MIC assays were determined in accordance with CLSI guidelines M27-A3 using a clinically isolated C. albicans strain, GDH2346.50% human serum was added to determine activity in the presence of serum.
For series [3], the system named is C. albicans GDH2346 hyphal biofilm. The series is described as follows: Candida IC50 in the hyphal state / hyphal biofilm, MTS viability assay. It is filed as cell-based. The following applies: 2-day hyphal biofilm cultures. The protocol:
Candida IC50s were determined by OD600 and fluorescence from vegetative cells and by MTS viability assay in the hyphal state. MICs were determined using a broth microdilution assay under standard CLSI conditions Bacteria strains: E. coli 25922 (EC), S. aureus 27660 (SA), E. faecalis 29212 (EF), P. aeruginosa 10145 (PA), and K. pneumoniae 13883 (KP). Cytotoxicity (EC50) was determined against mouse 3T3 fibroblasts, human transformed liver HepG2 cells, and human oral keratinocyte cell line, OKF6/TERT using an MTS viability assay. Candida IC50s<10 μg/mL, MICs<5 μg/mL and cytotoxicity EC50s>100 μM are indicated in green. MICs>5 μg/mL and cytotoxicity EC50s<100 μM are indicated in red. To form the biofilm, yeast were grown in RPMI/MOPS, 0.4% sucrose pH7.4 media supplemented with 10% FBS in tissue culture-treated flat bottom 96 well plates for 48 hours. The filamentous yeast cultures were then vigorously washed to remove any non-filamentous, non-attached yeast. The remaining attached filamentous biofilm yeast were incubated in saline containing serially diluted compounds for 24 hours. The cultures were aspirated to remove compound, rinsed and overlayed with RPMI/MOPS, 0.4% sucrose pH7.4 media. Biofilm viability was measured using a cell proliferation assay (CellTiter96 Aqueous Kit from Promega) and IC50s were determined using Prism GraphPad software (nonlinear fit, Table 3).
(Tetrazolium assays rely on reduction of a dye to a coloured formazan, in cell work by metabolically active cells.)

The subject of series [4] is A. viscosis. As to the kind of experiment: Commensal bacteria MIC, broth microdilution. It is filed as cell-based. The protocol: (§3) Bacterial MICs were determined using a broth microdilution assay under standard
(§4) CLSI conditions Bacteria strains: clinical isolates; yeast strains: C. dubliniensis (NCPF3949), C. glabrata (ATCC 90030), C. krusei (ATCC 6258), C. parapsilosis (ATCC 22019), and C. tropicalis (ATCC 750). Cytotoxicity (EC50) was determined against mouse 3T3 fibroblasts, human transformed liver HepG2 cells, and human oral keratinocyte cell line, OKF6/TERT using an MTS viability assay.
For orientation: Broth dilution looks for growth in wells or tubes with falling amounts of substance.

Series [5] deals with S. salivarius. As to the kind of experiment: Commensal bacteria MIC, broth microdilution. In kind it is cell-based. The protocol: as §3, §4
Series [6] has as its system C. tropicalis (ATCC 750). The series is described as follows: Yeast MIC. In kind it is cell-based. Here is the method: as §2, §4
For series [7], the system named is C. parapsilosis (ATCC 22019). The series is described as follows: Yeast MIC. It is filed as cell-based. Here is the method: as §2, §4
Series [8] concerns C. dubliniensis (NCPF3949). The series is described as follows: Yeast MIC. In kind it is cell-based. The following applies: Table 5. The protocol:
as §2, §4

Series [9] relates to C. krusei (ATCC 6258). As to the kind of experiment: Yeast MIC. It is filed as cell-based. Here is the method: as §2, §4
Series [10] has as its system C. glabrata (ATCC 90030). As to the kind of experiment: Yeast MIC. The following applies: Table 5. It is filed as cell-based. The protocol: as §2, §4
The test system of series [11] is P. aeruginosa 10145. The series is described as follows: Bacterial MIC, broth microdilution, CLSI. In kind it is cell-based. Particulars: Pseudomonas aeruginosa, 10145; read-out: PA (MIC). The protocol:
as §1, with “assay.” for “assay. For determination of anti-Candida IC50s, the method was modified by using RPMI/MOPS buffer pH 6.3 and by addition of FDGlu, a substrate for the yeast enzyme exoglucanase which is secreted during cell growth. This provides a fluorescent readout for cell growth which was used in addition to the traditional optical density measure of growth. OD600 and fluorescence were determined at 24 and 48 hours and the average of all 4 reads was used for the final IC50 determination.”

Series [12] deals with E. faecalis 29212. As to the kind of experiment: Bacterial MIC, broth microdilution, CLSI. It is filed as cell-based. Particulars: Enterococcus faecalis, 29212; read-out: EF (MIC). The protocol: as §1, with “assay.” for “assay. For determination of anti-Candida IC50s, the method was modified by using RPMI/MOPS buffer pH 6.3 and by addition of FDGlu, a substrate for the yeast enzyme exoglucanase which is secreted during cell growth. This provides a fluorescent readout for cell growth which was used in addition to the traditional optical density measure of growth. OD600 and fluorescence were determined at 24 and 48 hours and the average of all 4 reads was used for the final IC50 determination.”

Series [13] concerns S. aureus 27660. The series is described as follows: Bacterial MIC, broth microdilution, CLSI. In kind it is cell-based. Particulars: Staphylococcus aureus, 27660; read-out: SA (MIC). The protocol: as §1, with “assay.” for “assay. For determination of anti-Candida IC50s, the method was modified by using RPMI/MOPS buffer pH 6.3 and by addition of FDGlu, a substrate for the yeast enzyme exoglucanase which is secreted during cell growth. This provides a fluorescent readout for cell growth which was used in addition to the traditional optical density measure of growth. OD600 and fluorescence were determined at 24 and 48 hours and the average of all 4 reads was used for the final IC50 determination.”

The subject of series [14] is E. coli 25922. As to the kind of experiment: Bacterial MIC, broth microdilution, CLSI. Particulars: Escherichia coli, 25922; read-out: EC (MIC). In kind it is cell-based. The protocol: as §1, with “assay.” for “assay. For determination of anti-Candida IC50s, the method was modified by using RPMI/MOPS buffer pH 6.3 and by addition of FDGlu, a substrate for the yeast enzyme exoglucanase which is secreted during cell growth. This provides a fluorescent readout for cell growth which was used in addition to the traditional optical density measure of growth. OD600 and fluorescence were determined at 24 and 48 hours and the average of all 4 reads was used for the final IC50 determination.”

The nature of series [15]: Cytotoxicity, MTS viability assay. It is filed as cell-based, human. Here is the method: Candida IC50s were determined by OD600 and fluorescence from vegetative cells and by MTS viability assay in the hyphal state. MICs were determined using a broth microdilution assay under standard CLSI conditions Bacteria strains: E. coli 25922 (EC), S. aureus 27660 (SA), E. faecalis 29212 (EF), P. aeruginosa 10145 (PA), and K. pneumoniae 13883 (KP). Cytotoxicity (EC50) was determined against mouse 3T3 fibroblasts, human transformed liver HepG2 cells, and human oral keratinocyte cell line, OKF6/TERT using an MTS viability assay. Candida IC50s<10 μg/mL, MICs<5 μg/mL and cytotoxicity EC50s>100 μM are indicated in green. MICs>5 μg/mL and cytotoxicity EC50s<100 μM are indicated in red.
Candida IC50s (CA) were determined by OD600 and fluorescence from vegetative cells. MICs were determined using a broth microdilution assay under standard CLSI conditions Bacteria strains: E. coli 25922 (EC), S. aureus 27660 (SA), E. faecalis 29212 (EF), P. aeruginosa 10145 (PA), and K. pneumoniae 13883 (KP). Cytotoxicity (EC50) was determined against mouse 3T3 fibroblasts and human transformed liver HepG2 cells using an MTS viability assay.
as §4

The mark [16] stands for this setting: human, HepG2 cells (transformed liver), read-out: HepG2 (cytotoxicity EC50).
Setting [17] is: mouse, 3T3 fibroblasts, read-out: 3T3 (cytotoxicity EC50).

≈ marks a conversion by molar mass, not a printed value. Like-named read-outs stand apart in the source and are kept apart here.

From patent US8895561B2, “Compounds and methods for treating candidiasis and aspergillus infections” (Cellceutix Corporation, priority 2012, dated 2014) come the findings set out here.

As for `N=C(N)NCCc1cccc(-c2cnc(-c3cccc(CCNC(=N)N)c3)s2)c1` [Compound 188], the “Anti-C. albicans GDH2346 Vegetative (IC50)” value in [1] turned out to be 2.08 µg/mL. Besides, the “MIC C. albicans” value in series [2] came out at 2 µg/mL (≈ 4.91 µM). In addition, the “Anti-C. albicans GDH2346 Hyphal (IC50)” value in [3] was 2.22 µg/mL. The “MIC A. viscosis” value in [4] came to 16 µg/mL (≈ 39.3 µM). Moreover, the “MIC S. salivarius” value in series [5] amounted to 64 µg/mL (≈ 157 µM). Moreover, the “MIC C. tropicalis” value in series [6] came to 0.5 µg/mL (≈ 1.23 µM). The “MIC C. parapsilosis” value in series [7] is 4 µg/mL (≈ 9.81 µM). Further, in series [8], the “MIC C. dubliniensis” value turned out to be 4 µg/mL (≈ 9.81 µM). For the same compound, the “MIC C. krusei” value in series [9] came out at 4 µg/mL (≈ 9.81 µM). Moreover, the “MIC C. glabrata” value in [10] was found to be 4 µg/mL (≈ 9.81 µM).

In the case of `N=C(N)NCCc1cccc(-c2ccc(-c3cccc(CCNC(=N)N)c3)o2)c1` [Compound 187], the “Anti-C. albicans GDH2346 Vegetative (IC50)” value in series [1] was 2.20 µg/mL. Moreover, in series [2], the “MIC C. albicans” value came to 2 µg/mL (≈ 5.12 µM). In addition, the “MIC A. viscosis” value in series [4] is 8 µg/mL (≈ 20.5 µM). Moreover, the “MIC S. salivarius” value in [5] came out at 32 µg/mL (≈ 81.9 µM). For the same compound, in [6], the “MIC C. tropicalis” value stood at 0.5 µg/mL (≈ 1.28 µM). For the same compound, in [7], the “MIC C. parapsilosis” value came out at 4 µg/mL (≈ 10.2 µM). In addition, in [8], the “MIC C. dubliniensis” value is 4 µg/mL (≈ 10.2 µM). For the same compound, in [9], the “MIC C. krusei” value stood at 4 µg/mL (≈ 10.2 µM). For the same compound, in [10], the “MIC C. glabrata” value stood at 4 µg/mL (≈ 10.2 µM).

Take `N=C(N)NCCCOc1cc(OCCCNC(=N)N)cc(-c2ccc3c(c2)c2cc(-c4cc(OCCCNC(=N)N)cc(OCCCNC(=N)N)c4)ccc2n3CCCNC(=N)N)c1` [Compound 163]: the 50% inhibitory concentration (IC50) (in general, the concentration that inhibits the measured activity by half) in series [1] was 1.79 µg/mL (≈ 2.04 µM). In addition, the MIC (in general, the least concentration at which growth counts as inhibited) in series [11] is 50 µg/mL (≈ 56.9 µM); in series [12], 3.13 µg/mL (≈ 3.56 µM); in series [13], 3.13 µg/mL (≈ 3.56 µM); in [14], 3.13 µg/mL (≈ 3.56 µM). Also, the EC50 (in general, the concentration needed to bring the measured effect to its halfway point) came out at 113 µM in series [15] (setting [16]) and 31 µM in series [15] (setting [17]).

As to `CCn1c2ccc(-c3cc(C(=O)NCCN)cc(C(=O)NCCN)c3)cc2c2cc(-c3cc(C(=O)NCCN)cc(C(=O)NCCN)c3)ccc21` [Compound 148], in series [1], the half-inhibitory concentration (IC50) amounted to 8.74 µg/mL (≈ 12.6 µM). In addition, the minimal inhibitory concentration (MIC) in [11] is above 50 µg/mL; in series [12] it was above 50 µg/mL; in [13], 3.13 µg/mL (≈ 4.52 µM); in [14] it was 25 µg/mL (≈ 36.1 µM). Further, the concentration for a half-maximal effect (EC50) in [15] (setting [16]) was found to be 312 µM; in series [15] (setting [17]), 450 µM.
